Source: patent publication US9422324B2, “6-substituted demethyl-estradiol derivatives as selective ER-β agonists” (priority 2010, dated 2016)

Columns and labels:
[1] = tested on: TREK1; assay: Expression profiling (Agilent microarray), TREK1 gene transcription in tumor cell lines; type: cell-based, human; conditions: 24 hours
Description: (§1) The study includes three human tumor cell lines: A549, Panc-1, and SK-OV-3. The lines are each grown in two flasks cultured to roughly 40% confluence. One of the flasks is treated by addition of drug to the culture media at a various concentrations. The other, mock treated, flask is treated only with the vehicle used to solubilize and deliver the drug. RNA extracted from the pairs of treated and untreated samples is subjected to microarray analysis on Agilent Whole Human Genome Microarrays (G4112F). Each analysis reports the difference in abundance of messenger RNAs for each of the 41,000 specific mRNA detectors on the array. This direct comparison of the treated versus untreated samples for each cell line provides extremely sensitive detection of changes in mRNA abundance resulting from the drug treatment. As each cell line comparison is self-normalized, the results can be compared across the samples with high confidence.
(§2) Three human tumor cell lines, A549, Panc-1, and SK-OV-3, are each grown in two flasks cultured to roughly 40% confluence. One of the flasks is treated by addition of compound 1 to the culture media at concentrations according to Table 1 above. The other, mock treated, flask is treated only with the vehicle used to solubilize and deliver the drug. All flasks are cultured for a further 24 hours, and then the cells are scraped free and washed in ice-cold PBS, then collected by centrifugation. The harvested cells are immediately frozen, and stored at −80° C. or colder. It is visually noticeable that the treated cells yielded less mass than the untreated cells.
(§3) Total RNA is prepared from the frozen tissue samples using Trizol-based cell lysis followed by 65° C. hot phenol extraction and RNeasy chromatography purification. The purified RNA samples are analyzed spectrophotometrically. The concentration of RNA is determined by measuring the absorbance at 260 nm (A260). Given an absorbance of 1 unit at 260 nm corresponds to […].
(§4) All RNAs are labeled using 1 microgram of RNA as input to an Agilent Low Input Labeling reaction.
(§5) Test RNA is labeled with Cy5 (650 nm emitter) and reference RNA is labeled with Cy3 (550 nm emitter) nucleotides. Labeling, hybridizations and subsequent washings are carried out on Agilent H1Av2 human expression chips. The resulting hybridized chips are scanned on an Agilent microarray scanner, and intensity information for each detector spot is extracted from the scanned image using Agilent feature extraction software. The set of data images and extracted measurements from each image are supplied.
(§6) The data reported are the red (treated) and green (untreated) background-subtracted signals. This is the least modified form of the data. A background “surface” is estimated across the slide, based on numerous probes that are not complementary to human DNA. These serve as estimators of both non-specific binding of labeled cRNA to array surfaces and non-specific binding of labeled cRNA to the immobilized DNA oligomers. Using this information, local noise around each probe is estimated and this is subtracted from the signal found at the area of oligonucleotide deposition for each particular probe feature on the array (gBGSubSignal, rBGSubSignal). The ratio of signal from the RNA of the treated cell and the RNA of the untreated cell is reported both as a direct ratio and as the log2 ratio (Ratio, Log2Ratio).
(§7) After the ratios have been calculated for the normalized data, the various control and duplicate samples are analyzed to build a model of how reproducible the results are, and how this reproducibility is varies depending on signal strength and noise. With these parameters, an estimate of the likelihood that each ratio could have arisen if the red and green intensities are randomly drawn from a single process that produced the same distribution of intensities is produced. […]

[2] = tested on: TREK2; assay: Expression profiling (Agilent microarray), TREK2 gene transcription in tumor cell lines; type: cell-based, human; conditions: 24 hours
Description: as §1, §2, §3, §4, §5, §6, §7

[3] = biological target: ERβ (Homo sapiens (Human), UniProt Q92731); assay: Luciferase reporter assay in MDA-MB-231 cells transfected with ERα or ERβ; type: cell-based; conditions: MDA-MB-231, 24 hours; relative to B and I; from FIGS. 2 and 3 and Table 1
ERβ, sequence (Q92731 whole entry, species assumed): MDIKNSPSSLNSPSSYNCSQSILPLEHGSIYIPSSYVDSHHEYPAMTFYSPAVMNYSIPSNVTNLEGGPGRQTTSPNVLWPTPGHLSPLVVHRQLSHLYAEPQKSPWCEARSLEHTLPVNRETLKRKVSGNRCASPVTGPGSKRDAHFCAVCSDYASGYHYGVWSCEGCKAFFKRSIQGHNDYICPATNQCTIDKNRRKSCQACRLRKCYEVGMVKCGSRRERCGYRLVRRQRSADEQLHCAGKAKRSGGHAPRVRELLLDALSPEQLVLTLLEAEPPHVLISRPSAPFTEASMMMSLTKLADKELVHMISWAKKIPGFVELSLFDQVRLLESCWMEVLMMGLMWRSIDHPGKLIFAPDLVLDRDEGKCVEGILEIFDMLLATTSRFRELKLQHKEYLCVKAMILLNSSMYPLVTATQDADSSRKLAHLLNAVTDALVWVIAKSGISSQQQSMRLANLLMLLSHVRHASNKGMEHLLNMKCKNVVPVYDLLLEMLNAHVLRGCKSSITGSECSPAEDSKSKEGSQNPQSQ
Description: Response of I and B on ERα and ERβ is measured by a luciferase assay. MDA-MB-231 cells are transiently transfected with expression vectors encoding either ERα or ERβ and co-transfected with a luciferase reporter construct. Cells are treated for 24 hours at […] with increasing amounts of test article.

COC[C@@H]1C[C@@H]2[C@H](CCC3[C@H]2CC[C@@H]3O)c2ccc(O)cc21 (stereo partly drawn) [compound 1, (6R,8S,9S,14S,17S)-6-(methoxymethyl)-7,8,9,11,12,13,14,15,16,17-decahydro-6H-cyclopenta[a]phenanthrene-3,17-diol]
TREK1 Log 2 ratio treated/untreated ([1]; A549, 50 μM): 4.07/ | TREK1 Log 2 ratio treated/untreated ([1]; A549, 100 μm): 3.53/ | TREK1 Log 2 ratio treated/untreated ([1]; PANC1, 50 μM): 2.05/ | TREK1 Log 2 ratio treated/untreated ([1]; PANC1, 20 μm): 4.78/ | TREK1 Log 2 ratio treated/untreated ([1]; PANC1, 100 μm): 3.51/ | TREK1 Log 2 ratio treated/untreated ([1]; SKOV-3, 50 μM): 2.80/ | TREK1 Log 2 ratio treated/untreated ([1]; SKOV-3, 20 μm): 1.96/ | TREK1 Log 2 ratio treated/untreated ([1]; SKOV-3, 100 μm): 1.97/ | TREK2 Log 2 ratio treated/untreated ([2]; A549, 50 μM): 5.37/ | TREK2 Log 2 ratio treated/untreated ([2]; A549, 20 μm): 3.79/ | TREK2 Log 2 ratio treated/untreated ([2]; A549, 100 μm): 3.00/ | TREK2 Log 2 ratio treated/untreated ([2]; PANC1, 50 μM): 4.20/ | TREK2 Log 2 ratio treated/untreated ([2]; PANC1, 20 μm): 4.15/ | TREK2 Log 2 ratio treated/untreated ([2]; PANC1, 100 μm): 3.91/ | TREK2 Log 2 ratio treated/untreated ([2]; SKOV-3, 50 μM): 5.56/ | TREK2 Log 2 ratio treated/untreated ([2]; SKOV-3, 20 μm): 4.12/ | TREK2 Log 2 ratio treated/untreated ([2]; SKOV-3, 100 μm): 4.07/ | ER subtype functional profile (% of E2 activity on ERα and ERβ) [3]: ERβ specific agonist
